According to ChEMBL document CHEMBL1201862, “PubChem BioAssay data set” (2004):
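Step 1: Grow cells in 96-well plates. Step 2: Expose to compound for 48 hours at 5 concentrations. Step 3: Interpolate endpoints linearly; if unreached, use highest concentration. GI50: concentration for 50% inhibition of growth.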 Calls of active or inactive are those of the source. Rule as the data show it: active = GI50 up to about 1.1 µM and inactive = higher.

Legend:
Experiment in all cases: NCI-60 cell line screen, 48 h
UACC-257 = test system: UACC-257
NCI/ADR-RES = test system: NCI/ADR-RES
UACC-62 = test system: UACC-62
786-0 = test system: 786-0
CAKI-1 = test system: CAKI-1
SF-295 = test system: SF-295
SNB-19 = test system: SNB-19
U-251 = test system: U-251
OVCAR-3 = test system: OVCAR-3
OVCAR-5 = test system: OVCAR-5
HT-29 = test system: HT-29
MOLT-4 = test system: MOLT-4
KM12 = test system: KM12
HCT-15 = test system: HCT-15
A549 = test system: A549
ACHN = test system: ACHN
SNB-75 = test system: SNB-75
TK-10 = test system: TK-10
SK-MEL-5 = test system: SK-MEL-5

Question: Which results are given for `CN(C)C=O.O=C(Nc1nnn[nH]1)c1nc(O)cc(-c2ccccc2)n1`?
Answer: GI50 (UACC-257): > 100 µM (inactive); GI50 (NCI/ADR-RES): > 100 µM (inactive); GI50 (UACC-62): > 100 µM (inactive); GI50 (786-0): > 100 µM (inactive); GI50 (CAKI-1): > 100 µM (inactive); GI50 (SF-295): > 100 µM (inactive); GI50 (SNB-19): > 100 µM (inactive); GI50 (U-251): > 100 µM (inactive); GI50 (OVCAR-3): > 100 µM (inactive); GI50 (OVCAR-5): > 100 µM (inactive); GI50 (HT-29): > 100 µM (inactive); GI50 (MOLT-4): > 100 µM (inactive); GI50 (KM12): > 100 µM (inactive); GI50 (HCT-15): > 100 µM; GI50 (A549): > 100 µM (inactive); GI50 (ACHN): > 100 µM (inactive); GI50 (SNB-75): > 100 µM (inactive); GI50 (TK-10): > 100 µM (inactive); GI50 (SK-MEL-5): > 100 µM (inactive)

Question: `O=C1C=CC(=O)c2c1ccc1c3ccccc3n(Cc3cccc([N+](=O)[O-])c3)c21` was tested. Which GI50 (UACC-257) did it give?
Answer: Its GI50 is 23 µM (inactive).

Question: And the GI50 (NCI/ADR-RES)?
Answer: The GI50 was 37.8 µM (inactive).

Question: And the GI50 (UACC-62)?
Answer: Its GI50 is > 46 µM (inactive).

Question: What about the GI50 (786-0) of the same compound?
Answer: Its GI50 is 22.8 µM (inactive).

Question: And the GI50 (CAKI-1)?
Answer: Its GI50 is 14.7 µM (inactive).

Question: What about the GI50 (SF-295) of the same compound?
Answer: The GI50 was > 100 µM (inactive).

Question: And the GI50 (SNB-19)?
Answer: The GI50 was > 100 µM (inactive).

Question: And the GI50 (U-251)?
Answer: Its GI50 is > 89.5 µM (inactive).

Question: What about the GI50 (OVCAR-3) of the same compound?
Answer: The GI50 was 17.1 µM (inactive).

Question: And the GI50 (OVCAR-5)?
Answer: The GI50 was > 100 µM (inactive).

Question: What about the GI50 (HT-29) of the same compound?
Answer: The GI50 was 30.4 µM (inactive).

Question: And the GI50 (MOLT-4)?
Answer: Its GI50 is 8.65 µM (inactive).

Question: And the GI50 (KM12)?
Answer: Its GI50 is > 100 µM (inactive).

Question: What about the GI50 (HCT-15) of the same compound?
Answer: Its GI50 is 21.5 µM.

Question: What about the GI50 (A549) of the same compound?
Answer: Its GI50 is > 100 µM (inactive).

Question: What about the GI50 (ACHN) of the same compound?
Answer: Its GI50 is 18.2 µM (inactive).

Question: And the GI50 (SNB-75)?
Answer: The GI50 was > 78.2 µM (inactive).

Question: What about the GI50 (TK-10) of the same compound?
Answer: The GI50 was 20 µM (inactive).

Question: And the GI50 (SK-MEL-5)?
Answer: The GI50 was 53.3 µM (inactive).

Question: With `CC1=C/C(=C(/c2ccc(O)c(C)c2)c2ccccc2C(=O)O)C=CC1=O` as the compound, how does the GI50 (UACC-257) read?
Answer: The GI50 was 18.7 µM (inactive).

Question: And the GI50 (NCI/ADR-RES)?
Answer: The GI50 was 31 µM (inactive).

Question: What about the GI50 (UACC-62) of the same compound?
Answer: Its GI50 is 17.2 µM (inactive).

Question: And the GI50 (786-0)?
Answer: Its GI50 is 19 µM (inactive).

Question: What about the GI50 (CAKI-1) of the same compound?
Answer: The GI50 was 17.6 µM (inactive).

Question: And the GI50 (SF-295)?
Answer: The GI50 was 21.8 µM (inactive).

Question: What about the GI50 (SNB-19) of the same compound?
Answer: Its GI50 is 17.7 µM (inactive).

Question: What about the GI50 (U-251) of the same compound?
Answer: The GI50 was 18.2 µM (inactive).

Question: And the GI50 (OVCAR-3)?
Answer: The GI50 was 18 µM (inactive).

Question: And the GI50 (OVCAR-5)?
Answer: The GI50 was 21.2 µM (inactive).

Question: What about the GI50 (HT-29) of the same compound?
Answer: The GI50 was 21.9 µM (inactive).

Question: And the GI50 (MOLT-4)?
Answer: The GI50 was 21.9 µM (inactive).

Question: And the GI50 (KM12)?
Answer: The GI50 was 19.3 µM (inactive).

Question: What about the GI50 (HCT-15) of the same compound?
Answer: The GI50 was 21.4 µM.

Question: What about the GI50 (A549) of the same compound?
Answer: The GI50 was 19.5 µM (inactive).

Question: And the GI50 (ACHN)?
Answer: The GI50 was 18.3 µM (inactive).

Question: What about the GI50 (SNB-75) of the same compound?
Answer: The GI50 was 18.5 µM (inactive).

Question: And the GI50 (TK-10)?
Answer: Its GI50 is 17.3 µM (inactive).

Question: What about the GI50 (SK-MEL-5) of the same compound?
Answer: Its GI50 is 20.4 µM (inactive).

Question: How did the GI50 (UACC-257) turn out when `CCOC(=O)/C=C(/C(=O)OCC)n1ccc(=O)n(/C(=C/C(=O)OCC)C(=O)OCC)c1=O` was run?
Answer: Its GI50 is 10.6 µM (inactive).

Question: And the GI50 (NCI/ADR-RES)?
Answer: The GI50 was 22.9 µM (inactive).

Question: And the GI50 (UACC-62)?
Answer: Its GI50 is 14.8 µM (inactive).

Question: What about the GI50 (786-0) of the same compound?
Answer: Its GI50 is 2.4 µM (inactive).

Question: And the GI50 (CAKI-1)?
Answer: The GI50 was 1.66 µM (inactive).

Question: What about the GI50 (SF-295) of the same compound?
Answer: The GI50 was 25.6 µM (inactive).

Question: And the GI50 (SNB-19)?
Answer: The GI50 was 20.3 µM (inactive).

Question: What about the GI50 (U-251) of the same compound?
Answer: The GI50 was 14.6 µM (inactive).

Question: And the GI50 (OVCAR-3)?
Answer: The GI50 was 6.19 µM (inactive).

Question: What about the GI50 (OVCAR-5) of the same compound?
Answer: Its GI50 is 17.1 µM (inactive).

Question: And the GI50 (HT-29)?
Answer: Its GI50 is 7.74 µM (inactive).

Question: And the GI50 (MOLT-4)?
Answer: The GI50 was 1.76 µM (inactive).

Question: And the GI50 (KM12)?
Answer: Its GI50 is 17.2 µM (inactive).

Question: What about the GI50 (HCT-15) of the same compound?
Answer: The GI50 was 2.19 µM.

Question: And the GI50 (A549)?
Answer: The GI50 was 17.3 µM (inactive).

Question: And the GI50 (ACHN)?
Answer: Its GI50 is 3 µM (inactive).

Question: And the GI50 (SNB-75)?
Answer: The GI50 was 16.9 µM (inactive).

Question: And the GI50 (TK-10)?
Answer: Its GI50 is 7.08 µM (inactive).

Question: What about the GI50 (SK-MEL-5) of the same compound?
Answer: Its GI50 is 14.5 µM (inactive).

Question: What does the source list for `CC1C2Cc3ccc(O)cc3C1(C)CCN2C` (stereo not given)?
Answer: GI50 (UACC-257): > 100 µM (inactive); GI50 (NCI/ADR-RES): > 100 µM (inactive); GI50 (UACC-62): > 100 µM (inactive); GI50 (786-0): > 100 µM (inactive); GI50 (CAKI-1): > 100 µM (inactive); GI50 (SF-295): > 100 µM (inactive); GI50 (SNB-19): > 100 µM (inactive); GI50 (U-251): > 100 µM (inactive); GI50 (OVCAR-3): > 100 µM (inactive); GI50 (OVCAR-5): > 100 µM (inactive); GI50 (HT-29): > 100 µM (inactive); GI50 (MOLT-4): > 100 µM (inactive); GI50 (KM12): > 100 µM (inactive); GI50 (HCT-15): > 100 µM; GI50 (A549): > 100 µM (inactive); GI50 (ACHN): > 100 µM (inactive); GI50 (SNB-75): 86.7 µM (inactive); GI50 (TK-10): > 100 µM (inactive); GI50 (SK-MEL-5): > 100 µM (inactive)
